For one series, the target named is T1, mouse GnRH receptor (Mus musculus, UniProt Q01776).
T1 construct: expressed in transfected cells; host or cells: 293 cells
T1 sequence (Q01776 1-327): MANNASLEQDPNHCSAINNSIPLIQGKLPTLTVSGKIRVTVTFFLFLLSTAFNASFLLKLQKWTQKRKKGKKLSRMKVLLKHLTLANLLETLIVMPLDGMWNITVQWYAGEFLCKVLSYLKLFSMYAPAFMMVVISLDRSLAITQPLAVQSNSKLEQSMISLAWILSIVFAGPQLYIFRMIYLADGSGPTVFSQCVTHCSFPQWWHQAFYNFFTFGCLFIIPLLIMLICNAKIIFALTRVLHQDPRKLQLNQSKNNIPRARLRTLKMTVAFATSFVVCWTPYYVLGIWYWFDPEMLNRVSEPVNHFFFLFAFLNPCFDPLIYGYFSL
Put plainly: Radioligand binding, 125I-GnRH-A, 293 cells expressing mouse GnRH receptors. Particulars: 10 uM; read-out: % Inhib. @ 10 uM mGnRH. Put shortly:
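Bound label captured on 0.1% polyethyleneimine-treated GF/C filters, washed three times with PBS, counted. IC50 derived; identical set-up for every species.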
Turning to `Cc1cc2c(cc1Cc1ccc(C(=O)N(Cc3cccnc3)Cc3cccnc3)o1)C(C)(C)CCC2(C)C` [drawing 1538], the inhibition at 10 µM amounted to 101%.

As to `CNC(=O)c1ccc(Cc2cc3c(cc2C)C(C)(C)CCC3(C)C)o1` [drawing 1539], the inhibition at 10 µM turned out to be 23%.

As to `Cc1cc2c(cc1Cc1ccc(C(=O)N(Cc3ccccc3)C(C)C)o1)C(C)(C)CCC2(C)C` [drawing 1541], the inhibition at 10 µM was 84%.

`Cc1cc2c(cc1Cc1ccc(C(=O)N(Cc3ccccc3)[C@@H](C)c3ccccc3)o1)C(C)(C)CCC2(C)C` [drawing 1542]: the inhibition at 10 µM was found to be 46%.

Consider `CCN(Cc1ccc(C)cc1)C(=O)c1ccc(Cc2cc3c(cc2C)C(C)(C)CCC3(C)C)o1` [drawing 1543], for which the inhibition at 10 µM stood at 79%.

Regarding `Cc1cc2c(cc1Cc1ccc(C(=O)N3CCC(NC(=O)OC(C)(C)C)C3)o1)C(C)(C)CCC2(C)C` (stereo not drawn) [drawing 1544], the inhibition at 10 µM was found to be 82%.

As for `Cc1cc2c(cc1Cc1ccc(C(=O)N3CCCC3C)o1)C(C)(C)CCC2(C)C` (stereo not drawn) [drawing 1545], the inhibition at 10 µM is 102%.

With `CCC(CC)NC(=O)c1ccc(Cc2cc3c(cc2C)C(C)(C)CCC3(C)C)o1` [drawing 1546], the inhibition at 10 µM worked out at 76%.

Consider `CCCC(CO)NC(=O)c1ccc(Cc2cc3c(cc2C)C(C)(C)CCC3(C)C)o1` (stereo not drawn) [drawing 1547], for which the inhibition at 10 µM worked out at 99%.

On to `CCCCN(C)C(=O)c1ccc(Cc2cc3c(cc2C)C(C)(C)CCC3(C)C)o1` [drawing 1548], for which the inhibition at 10 µM turned out to be 100%.

Regarding `COC(CN(C)C(=O)c1ccc(Cc2cc3c(cc2C)C(C)(C)CCC3(C)C)o1)OC` [drawing 1549], the inhibition at 10 µM is 90%.

Consider `Cc1cc2c(cc1Cc1ccc(C(=O)NCCCCCCO)o1)C(C)(C)CCC2(C)C` [drawing 1550], for which the inhibition at 10 µM amounted to 103%.

Regarding `Cc1cc2c(cc1Cc1ccc(C(=O)N(CCC(c3ccccc3)c3ccccc3)Cc3ccco3)o1)C(C)(C)CCC2(C)C` [drawing 1552], the inhibition at 10 µM was determined as 43%.

Take `Cc1cc2c(cc1Cc1ccc(C(=O)N(CCC(c3ccccc3)c3ccccc3)Cc3ccccn3)o1)C(C)(C)CCC2(C)C` [drawing 1554]: the inhibition at 10 µM was 50%.

Consider `Cc1cc2c(cc1Cc1ccc(C(=O)N(CCc3ccccc3)Cc3ccoc3)o1)C(C)(C)CCC2(C)C` [drawing 1557], for which the inhibition at 10 µM is 61%.

`COc1ccccc1CN(C(=O)c1ccc(Cc2cc3c(cc2C)C(C)(C)CCC3(C)C)o1)C1CCN(Cc2ccccc2)C1` (stereo not drawn) [drawing 1558]: the inhibition at 10 µM turned out to be 91%.

`Cc1cc2c(cc1Cc1ccc(C(=O)N(Cc3ccco3)C3CCN(Cc4ccccc4)C3)o1)C(C)(C)CCC2(C)C` (stereo not drawn) [drawing 1559]: the inhibition at 10 µM was 94%.

`Cc1cc2c(cc1Cc1ccc(C(=O)N(Cc3ccsc3)C3CCN(Cc4ccccc4)C3)o1)C(C)(C)CCC2(C)C` (stereo not drawn) [drawing 1560]: the inhibition at 10 µM was 91%.

With `Cc1cc2c(cc1Cc1ccc(C(=O)N(Cc3ccoc3)C3CCN(Cc4ccccc4)C3)o1)C(C)(C)CCC2(C)C` (stereo not drawn) [drawing 1561], the inhibition at 10 µM was 91%.

With `Cc1cc2c(cc1Cc1ccc(C(=O)N(Cc3cccn3C)C3CCN(Cc4ccccc4)C3)o1)C(C)(C)CCC2(C)C` (stereo not drawn) [drawing 1562], the inhibition at 10 µM was found to be 98%.

On to `Cc1cc2c(cc1Cc1ccc(C(=O)N(Cc3cccc4ccccc34)C3CCN(Cc4ccccc4)C3)o1)C(C)(C)CCC2(C)C` (stereo not drawn) [drawing 1563], for which the inhibition at 10 µM was determined as 57%.

Turning to `Cc1cc2c(cc1Cc1ccc(C(=O)N(Cc3ccc(C(C)C)cc3)C3CCN(Cc4ccccc4)C3)o1)C(C)(C)CCC2(C)C` (stereo not drawn) [drawing 1564], the inhibition at 10 µM came to 48%.

In the case of `CCN1CC(N(Cc2ccccc2C#N)C(=O)c2ccc(Cc3cc4c(cc3C)C(C)(C)CCC4(C)C)o2)CN1CC` [drawing 1565], the inhibition at 10 µM was found to be 101%.

For `CCN1CC(N(Cc2ccc(N(C)C)cc2)C(=O)c2ccc(Cc3cc4c(cc3C)C(C)(C)CCC4(C)C)o2)CN1CC` [drawing 1566], the inhibition at 10 µM was 95%.

In the case of `CCN1CC(N(CCC(C)CCCC(C)(C)O)C(=O)c2ccc(Cc3cc4c(cc3C)C(C)(C)CCC4(C)C)o2)CN1CC` (stereo not drawn) [drawing 1567], the inhibition at 10 µM amounted to 104%.

Turning to `CCN1CC(N(CCC(C)c2ccccc2)C(=O)c2ccc(Cc3cc4c(cc3C)C(C)(C)CCC4(C)C)o2)CN1CC` (stereo not drawn) [drawing 1568], the inhibition at 10 µM was 95%.

In the case of `Cc1cc2c(cc1Cc1ccc(C(=O)NCc3cccc(NC(=O)NC(Cc4ccccc4)c4ccccc4)c3)o1)C(C)(C)CCC2(C)C` (stereo not drawn) [drawing 1570], the inhibition at 10 µM stood at 42%.

Take `Cc1cc2c(cc1Cc1ccc(C(=O)NCc3cccc(CNC(=O)C(Cc4ccccc4)c4ccccc4)c3)o1)C(C)(C)CCC2(C)C` (stereo not drawn) [drawing 1571]: the inhibition at 10 µM is 47%.

Regarding `C=C(C)CNC(=O)c1ccc(Cc2cc3c(cc2C)C(C)(C)CCC3(C)C)o1` [drawing 1573], the inhibition at 10 µM came out at 93%.

For `Cc1cc2c(cc1Cc1ccc(C(=O)NCCc3ccc(F)cc3)o1)C(C)(C)CCC2(C)C` [drawing 1574], the inhibition at 10 µM was found to be 79%.

`COc1cc(OC)cc(N2CCN(C(=O)c3ccc(Cc4cc5c(cc4C)C(C)(C)CCC5(C)C)o3)CC2)c1` [drawing 1576]: the inhibition at 10 µM stood at 65%.

Take `Cc1cc2c(cc1Cc1ccc(C(=O)NC(C)(C)CC(C)(C)C)o1)C(C)(C)CCC2(C)C` [drawing 1577]: the inhibition at 10 µM is 66%.

Consider `Cc1cc2c(cc1Cc1ccc(C(=O)N3CCC(NC(=O)C(F)(F)F)C3)o1)C(C)(C)CCC2(C)C` (stereo not drawn) [drawing 1578], for which the inhibition at 10 µM was found to be 60%.

On to `CSCCC(CO)NC(=O)c1ccc(Cc2cc3c(cc2C)C(C)(C)CCC3(C)C)o1` (stereo not drawn) [drawing 1580], for which the inhibition at 10 µM came to 105%.

Regarding `CC[C@H](C)C(CO)NC(=O)c1ccc(Cc2cc3c(cc2C)C(C)(C)CCC3(C)C)o1` (stereo partly drawn) [drawing 1581], the inhibition at 10 µM was determined as 77%.

With `COc1cc2c(cc1OC)C(CC#N)N(C(=O)c1ccc(Cc3cc4c(cc3C)C(C)(C)CCC4(C)C)o1)CC2` (stereo not drawn) [drawing 1582], the inhibition at 10 µM was 52%.

Regarding `Cc1cc2c(cc1Cc1ccc(C(=O)N(C)CCC3OCCO3)o1)C(C)(C)CCC2(C)C` [drawing 1583], the inhibition at 10 µM turned out to be 96%.

For `Cc1cc2c(cc1Cc1ccc(C(=O)NC(C)CN(C)C)o1)C(C)(C)CCC2(C)C` (stereo not drawn) [drawing 1584], the inhibition at 10 µM stood at 92%.

In the case of `Cc1cc2c(cc1Cc1ccc(C(=O)NC(C)(C)CO)o1)C(C)(C)CCC2(C)C` [drawing 1585], the inhibition at 10 µM stood at 90%.

With `CSCCCNC(=O)c1ccc(Cc2cc3c(cc2C)C(C)(C)CCC3(C)C)o1` [drawing 1586], the inhibition at 10 µM was found to be 99%.

As for `CSCCNC(=O)c1ccc(Cc2cc3c(cc2C)C(C)(C)CCC3(C)C)o1` [drawing 1587], the inhibition at 10 µM turned out to be 97%.

`CCSCCNC(=O)c1ccc(Cc2cc3c(cc2C)C(C)(C)CCC3(C)C)o1` [drawing 1588]: the inhibition at 10 µM stood at 99%.

With `COC(OC)C(C)NC(=O)c1ccc(Cc2cc3c(cc2C)C(C)(C)CCC3(C)C)o1` (stereo not drawn) [drawing 1589], the inhibition at 10 µM was 97%.

As to `CCCOCCNC(=O)c1ccc(Cc2cc3c(cc2C)C(C)(C)CCC3(C)C)o1` [drawing 1590], the inhibition at 10 µM amounted to 103%.

Consider `Cc1cc2c(cc1Cc1ccc(C(=O)NCCC3OCCO3)o1)C(C)(C)CCC2(C)C` [drawing 1591], for which the inhibition at 10 µM is 104%.

In the case of `CCOC(=O)CCNC(=O)c1ccc(Cc2cc3c(cc2C)C(C)(C)CCC3(C)C)o1` [drawing 1592], the inhibition at 10 µM came to 99%.

The series is the same for the next values; noted with them: read-out: mGnRH IC50.
A word on the IC50: it is the concentration needed to halve the response being measured. As to `COc1cc(OC)c(NC(=O)c2ccc(Cc3cc4c(cc3C)C(C)(C)CC4(C)C)o2)c(OC)c1` [Compound 300], the IC50 is 3.1 nM.

On to `COc1cc(NC(=O)c2ccc(Cc3cc4c(cc3C)C(C)(C)CCC4(C)C)o2)cc(OC)c1OC` [Compound 301], for which the concentration for half-maximal inhibition (IC50) came out at 38 nM.

Test system in another series: not listed separately
Put plainly: Pharmacokinetic studies / bioavailability in rats. The series is classed as in vivo, rat. As to conditions: female, rat, plasma, po, 10 mg/kg, rat female; p.o. 10 mg/kg; 5 mg/ml solution in 10% DMSO 10% cremophor 80% saline.
Usually Cmax stands for the peak of the concentration-time curve. Usually Tmax stands for the time from dosing to the highest level. On to `COc1cc(OC)c(NC(=O)c2ccc(Cc3cc4c(cc3C)C(C)(C)CC4(C)C)o2)c(OC)c1` [Compound 300], for which the concentration peaked (Cmax) at 360 nM and the Tmax is 1 h.

Staying with this series, now noted: female, rat, plasma, rat female.
In general, half-life refers to how long it takes for the measured level to halve. Read a low half-life as rapid decline. On to `COc1cc(OC)c(NC(=O)c2ccc(Cc3cc4c(cc3C)C(C)(C)CC4(C)C)o2)c(OC)c1` [Compound 300], for which the half-life was 2.1 h.

The same series, now with this note: rat female; 5 mg/ml solution in 10% DMSO 10% cremophor 80% saline.
In the case of `COc1cc(OC)c(NC(=O)c2ccc(Cc3cc4c(cc3C)C(C)(C)CC4(C)C)o2)c(OC)c1` [Compound 300], the Fp.o. is reported as 10% (10 mg/kg)^10.

A further series deals with T2, human GnRH receptor (Homo sapiens, UniProt P30968).
T2 construct: expressed in transfected cells; host or cells: HEK 293 (hGnRH-R/293, from Dr. Stuart Sealfon)
T2 sequence (P30968 1-328): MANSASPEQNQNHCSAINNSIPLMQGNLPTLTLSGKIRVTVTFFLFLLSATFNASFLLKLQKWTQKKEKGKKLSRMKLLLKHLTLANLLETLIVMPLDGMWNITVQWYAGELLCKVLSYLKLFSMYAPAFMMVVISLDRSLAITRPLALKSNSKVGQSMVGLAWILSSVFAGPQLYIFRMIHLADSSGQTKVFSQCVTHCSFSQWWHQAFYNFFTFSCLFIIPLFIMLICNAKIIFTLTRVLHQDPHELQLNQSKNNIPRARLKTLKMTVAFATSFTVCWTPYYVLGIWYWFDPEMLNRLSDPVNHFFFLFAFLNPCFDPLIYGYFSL
Put plainly: Radioligand binding, 125I-GnRH-A displacement, membranes of HEK 293 cells with human GnRH receptor. Particulars: read-out: hGnRH IC50. A digest of the protocol:
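Bound tracer was separated by filtration through polyethyleneimine-soaked GF/C filters and counted by liquid scintillation. IC50 from curve fitting; other species were tested under the same conditions.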
With `COc1cc(OC)c(NC(=O)c2ccc(Cc3cc4c(cc3C)C(C)(C)CC4(C)C)o2)c(OC)c1` [Compound 300], the IC50 is 3.2 nM.

For `COc1cc(NC(=O)c2ccc(Cc3cc4c(cc3C)C(C)(C)CCC4(C)C)o2)cc(OC)c1OC` [Compound 301], the IC50 stood at 45 nM.

(Values after US7101878B1 (Agouron Pharmaceuticals, Inc., priority 1998, dated 2006).)
